Test results from US11202787B2, “Use of ACTH in assessment and prophylactic treatment of hypokalemia associated with glucocorticoid receptor modulator treatment of Cushing's syndrome patients” (Corcept Therapeutics, Inc., priority 2018, dated 2021).

How the values were obtained:
[1] = test system: ACTH; assay: ACTH levels during mifepristone treatment of Cushing's syndrome patients; format: in vivo, human; settings: for ACTH Visit Change Values from Baseline / Ratio of ACTH Visit Change Values from Baseline per Baseline (ACTH_CHG/ACTH Baseline): Mean ± SD
Excerpt: (§1) The term “measuring the level,” in the context of cortisol, ACTH, mifepristone, or other compounds, refers to determining, detecting, or quantitating the amount, level, or concentration of, for example, cortisol, ACTH, mifepristone, or other compound in a sample obtained from a subject. Plasma or serum samples are often used for measuring ACTH or cortisol level.
(§2) The types of samples that are suitable for ACTH determination can be serum, plasma, saliva, urine, or any other biological fluid taken from a subject. In preferred embodiments, the sample is a serum sample, or is a plasma sample. The level of ACTH can be measured using various methods, including but not limited to, immunoassays, e.g., competitive immunoassay, radioimmunoassay (MA), immunofluorometric enzyme assay, and ELISA; competitive protein-binding assays; liquid chromatography (e.g., HPLC); and mass spectrometry, e.g., high-performance liquid chromatography/triple quadrupole-mass spectrometry (LC-MS/MS). Commercial kits for measuring ACTH are readily available, e.g., from Mayo clinic (Test ID: ACTH), Siemens Healthcare Global (Immulite® 2000 ACTH assay), and Roche Molecular Diagnostics (Catalog No. 03255751190). In preferred embodiments, ACTH levels are measured using a radioimmunoassay (RIA), most preferable a two-site MA, such as performed by Quest Diagnostics (Secaucus, N.J. 07094).
(§3) The Cushing's syndrome study reported herein was conducted in accordance with the Declaration of Helsinki and Good Clinical Practice (GCP) according to International Conference on Harmonization (ICH) guidelines.
(§4) Dosing Schedule Dosing was started with 300 mg of mifepristone once per day for 14 days. After 14 days, if no clinical improvement was seen but the drug was well tolerated, the dose of mifepristone was increased to 600 mg once per day. After 4 weeks of dosing at 600 mg once per day, if no clinical improvement was seen but the drug was well tolerated, the dose was increased to 900 mg once per day. Dose escalation was based on weight with the maximum dose no higher than 20 mg/kg/day. […] After 4 weeks of dosing at 900 mg once per day, if no clinical improvement was seen but the drug was well tolerated, the dose was increased to 1200 mg once per day. Study duration was 24 weeks.
(§5) Potassium levels were obtained on every subject at either screening or the pre-drug administration baseline visit, and then also at every scheduled post-baseline visit. Potassium levels post-baseline were therefore obtained as early as day 7 and through day 210 (week 30 was the last visit and was the 6 week follow-up visit). ACTH, and cortisol were measured at six visits (week 2 (day 14), week 6 (day 42), week 10 (day 70), week 16 (day 112), and week 24 (day 168) week 6 follow-up (day 210)).

[2] = test system: Cushing's syndrome patients; settings: cited from earlier work
[3] = test system: healthy volunteers; assay: Previous clinical studies in healthy volunteers: adverse events; format: in vivo, human
Excerpt: Hypokalemia and rash appear to be more common in subjects receiving mifepristone than in the control groups.

[4] = test system: cortisol; assay: Total serum cortisol during mifepristone treatment of Cushing's syndrome patients; format: in vivo, human; settings: for Total Serum Cortisol Visit Values: Mean ± SD
Excerpt: as §1
as §2, with “cortisol” for “ACTH”, “(LC-MS/MS).” for “(LC-MS/MS). Commercial kits for measuring ACTH are readily available, e.g., from Mayo clinic (Test ID: ACTH), Siemens Healthcare Global (Immulite® 2000 ACTH assay), and Roche Molecular Diagnostics (Catalog No. 03255751190).”, “LC-MS/MS,” for “a radioimmunoassay (RIA), most preferable a two-site MA,”
as §3, §4, §5

[5] = test system: cortisol; assay: 24-hour urine cortisol during mifepristone treatment of Cushing's syndrome patients; format: in vivo, human; settings: Mean ± SD
Description: as §3, §4, §5

[6] = 43 subjects with Cushing's disease
[7] = Day 210 (6 week follow-up), Hypokalemic
[8] = Day 210 (6 week follow-up), Non-Hypokalemic

SMILES: CC#C[C@]1(O)CC[C@H]2[C@@H]3CCC4=CC(=O)CCC4=C3[C@@H](c3ccc(N(C)C)cc3)C[C@@]21C [mifepristone, 11β-(4-dimethylaminophenyl)-17β-hydroxy-17α-(1-propynyl)-estra-4,9-dien-3-one]
- ACTH increase during mifepristone treatment [1, 6]: about two-fold
- ACTH Visit Change Values from Baseline ([1]; Day 14, Hypokalemic): 60.8 ± 99.6 (8) ng/L
- Ratio of ACTH Visit Change Values from Baseline per Baseline (ACTH_CHG/ACTH Baseline) ([1]; Day 14, Hypokalemic): 1.87 ± 1.32 (8)
- ACTH Visit Change Values from Baseline ([1]; Day 14, Non-Hypokalemic): 30.6 ± 26.9 (38) ng/L
- Ratio of ACTH Visit Change Values from Baseline per Baseline (ACTH_CHG/ACTH Baseline) ([1]; Day 14, Non-Hypokalemic): 1.77 ± 0.72 (38)
- ACTH Visit Change Values from Baseline ([1]; Day 42, Hypokalemic): 86.3 ± 58.2 (6) ng/L
- Ratio of ACTH Visit Change Values from Baseline per Baseline (ACTH_CHG/ACTH Baseline) ([1]; Day 42, Hypokalemic): 2.50 ± 0.61 (6)
- ACTH Visit Change Values from Baseline ([1]; Day 42, Non-Hypokalemic): 40.6 ± 54.7 (35) ng/L
- Ratio of ACTH Visit Change Values from Baseline per Baseline (ACTH_CHG/ACTH Baseline) ([1]; Day 42, Non-Hypokalemic): 2.02 ± 0.97 (35)
- ACTH Visit Change Values from Baseline ([1]; Day 70, Hypokalemic): 211.8 ± 147.5 (6) ng/L
- Ratio of ACTH Visit Change Values from Baseline per Baseline (ACTH_CHG/ACTH Baseline) ([1]; Day 70, Hypokalemic): 4.08 ± 2.51 (6)
- ACTH Visit Change Values from Baseline ([1]; Day 70, Non-Hypokalemic): 49.2 ± 22.5 (30) ng/L
- Ratio of ACTH Visit Change Values from Baseline per Baseline (ACTH_CHG/ACTH Baseline) ([1]; Day 70, Non-Hypokalemic): 2.06 ± 1.01 (30)
- ACTH Visit Change Values from Baseline ([1]; Day 112, Hypokalemic): 101.4 ± 159.6 (9) ng/L
- Ratio of ACTH Visit Change Values from Baseline per Baseline (ACTH_CHG/ACTH Baseline) ([1]; Day 112, Hypokalemic): 2.53 ± 1.49 (9)
- ACTH Visit Change Values from Baseline ([1]; Day 112, Non-Hypokalemic): 70.2 ± 82.2 (23) ng/L
- Ratio of ACTH Visit Change Values from Baseline per Baseline (ACTH_CHG/ACTH Baseline) ([1]; Day 112, Non-Hypokalemic): 2.47 ± 1.87 (23)
- ACTH Visit Change Values from Baseline ([1]; Day 168, Hypokalemic): 151.2 ± 166.5 (5) ng/L
- Ratio of ACTH Visit Change Values from Baseline per Baseline (ACTH_CHG/ACTH Baseline) ([1]; Day 168, Hypokalemic): 3.30 ± 2.54 (5)
- ACTH Visit Change Values from Baseline ([1]; Day 168, Non-Hypokalemic): 48.2 ± 73.8 (37) ng/L
- Ratio of ACTH Visit Change Values from Baseline per Baseline (ACTH_CHG/ACTH Baseline) ([1]; Day 168, Non-Hypokalemic): 2.08 ± 1.31 (37)
- ACTH Visit Change Values from Baseline [1, 7]: 113.7 ± 167.7 (3) ng/L
- Ratio of ACTH Visit Change Values from Baseline per Baseline (ACTH_CHG/ACTH Baseline) [1, 7]: 1.36 ± 0.46 (3)
- ACTH Visit Change Values from Baseline [1, 8]: 13.4 ± 34.0 (37) ng/L
- Ratio of ACTH Visit Change Values from Baseline per Baseline (ACTH_CHG/ACTH Baseline) [1, 8]: 1.33 ± 0.61 (37)
- rise in ACTH levels following an initial increase in mifepristone dose (FIG. 1) ([1]; patients who did not experience hypokalemia): about 25 pg/mL
- patients with serum potassium levels less than 3.5 mEq/L ([2]; of 43 Cushing's syndrome patients (ACTH-dependent and ACTH-independent)): 22 patients
- patients with serum potassium levels less than 2.5 mEq/L (severe hypokalemia) ([2]; of the 22 hypokalemic of 43 patients): 3 patients
- frequently reported adverse events ([3]; previous clinical studies, healthy volunteers): headache, gastrointestinal symptoms including diarrhea, nausea and vomiting, and rash
- Hypokalemia and rash versus control groups ([3]; subjects receiving mifepristone vs control groups): more common
- serum cortisol increase during mifepristone treatment [4, 6]: increased to a smaller degree
- Total Serum Cortisol Visit Values ([4]; Day 14, Hypokalemic): 1261 ± 786 (8) nmol/L
- Total Serum Cortisol Visit Values ([4]; Day 14, Non-Hypokalemic): 782 ± 246 (38) nmol/L
- Total Serum Cortisol Visit Values ([4]; Day 42, Hypokalemic): 1274 ± 401 (6) nmol/L
- Total Serum Cortisol Visit Values ([4]; Day 42, Non-Hypokalemic): 828 ± 249 (35) nmol/L
- Total Serum Cortisol Visit Values ([4]; Day 70, Hypokalemic): 1390 ± 283 (6) nmol/L
- Total Serum Cortisol Visit Values ([4]; Day 70, Non-Hypokalemic): 1025 ± 546 (30) nmol/L
- Total Serum Cortisol Visit Values ([4]; Day 112, Hypokalemic): 1318 ± 677 (9) nmol/L
- Total Serum Cortisol Visit Values ([4]; Day 112, Non-Hypokalemic): 813 ± 318 (23) nmol/L
- Total Serum Cortisol Visit Values ([4]; Day 168, Hypokalemic): 1298 ± 597 (5) nmol/L
- Total Serum Cortisol Visit Values ([4]; Day 168, Non-Hypokalemic): 948 ± 537 (37) nmol/L
- Total Serum Cortisol Visit Values [4, 7]: 1228 ± 561 (3) nmol/L
- Total Serum Cortisol Visit Values [4, 8]: 696 ± 477 (37) nmol/L
- 24 Hour Urine Cortisol (nmol/24 hr)/ACTH Ratio Visit Values ([5]; Day 42, Hypokalemic): 26.1 ± 18.4 (6)
- 24 Hour Urine Cortisol Visit Change Values from Baseline ([5]; Day 42, Hypokalemic): 641 ± 3678 (6) nmol/24 hr
- 24 Hour Urine Cortisol Visit Values ([5]; Day 42, Hypokalemic): 4373 ± 5347 (6) nmol/24 hr
- 24 Hour Urine Cortisol (nmol/24 hr)/ACTH Ratio Visit Values ([5]; Day 42, Non-Hypokalemic): 7.9 ± 6.0 (35)
- 24 Hour Urine Cortisol Visit Change Values from Baseline ([5]; Day 42, Non-Hypokalemic): 329 ± 967 (35) nmol/24 hr
- 24 Hour Urine Cortisol Visit Values ([5]; Day 42, Non-Hypokalemic): 886 ± 1060 (35) nmol/24 hr
- 24 Hour Urine Cortisol (nmol/24 hr)/ACTH Ratio Visit Values ([5]; Day 70, Hypokalemic): 33.5 ± 16.1 (6)
- 24 Hour Urine Cortisol Visit Change Values from Baseline ([5]; Day 70, Hypokalemic): 4856 ± 4805 (6) nmol/24 hr
- 24 Hour Urine Cortisol Visit Values ([5]; Day 70, Hypokalemic): 9132 ± 9321 (6) nmol/24 hr
- 24 Hour Urine Cortisol (nmol/24 hr)/ACTH Ratio Visit Values ([5]; Day 70, Non-Hypokalemic): 17.0 ± 32.7 (30)
- 24 Hour Urine Cortisol Visit Change Values from Baseline ([5]; Day 70, Non-Hypokalemic): 1045 ± 3500 (30) nmol/24 hr
- 24 Hour Urine Cortisol Visit Values ([5]; Day 70, Non-Hypokalemic): 1696 ± 3387 (30) nmol/24 hr
- 24 Hour Urine Cortisol (nmol/24 hr)/ACTH Ratio Visit Values ([5]; Day 112, Hypokalemic): 30.9 ± 31.0 (9)
- 24 Hour Urine Cortisol Visit Change Values from Baseline ([5]; Day 112, Hypokalemic): 2916 ± 2593 (9) nmol/24 hr
- 24 Hour Urine Cortisol Visit Values ([5]; Day 112, Hypokalemic): 3552 ± 2827 (9) nmol/24 hr
- 24 Hour Urine Cortisol (nmol/24 hr)/ACTH Ratio Visit Values ([5]; Day 112, Non-Hypokalemic): 9.6 ± 16.3 (23)
- 24 Hour Urine Cortisol Visit Change Values from Baseline ([5]; Day 112, Non-Hypokalemic): 104 ± 5293 (23) nmol/24 hr
- 24 Hour Urine Cortisol Visit Values ([5]; Day 112, Non-Hypokalemic): 1314 ± 3351 (23) nmol/24 hr
- 24 Hour Urine Cortisol (nmol/24 hr)/ACTH Ratio Visit Values ([5]; Day 168, Hypokalemic): 19.3 ± 9.5 (5)
- 24 Hour Urine Cortisol Visit Change Values from Baseline ([5]; Day 168, Hypokalemic): 4128 ± 6624 (5) nmol/24 hr
- 24 Hour Urine Cortisol Visit Values ([5]; Day 168, Hypokalemic): 5615 ± 5053 (5) nmol/24 hr
- 24 Hour Urine Cortisol (nmol/24 hr)/ACTH Ratio Visit Values ([5]; Day 168, Non-Hypokalemic): 12.4 ± 15.5 (36)
- 24 Hour Urine Cortisol Visit Change Values from Baseline ([5]; Day 168, Non-Hypokalemic): 512 ± 4575 (36) nmol/24 hr
- 24 Hour Urine Cortisol Visit Values ([5]; Day 168, Non-Hypokalemic): 1444 ± 3127 (36) nmol/24 hr
- 24 Hour Urine Cortisol (nmol/24 hr)/ACTH Ratio Visit Values [5, 7]: 11.5 ± 7.5 (3)
- 24 Hour Urine Cortisol Visit Change Values from Baseline [5, 7]: 2497 ± 3776 (3) nmol/24 hr
- 24 Hour Urine Cortisol Visit Values [5, 7]: 5129 ± 6335 (3) nmol/24 hr
- 24 Hour Urine Cortisol (nmol/24 hr)/ACTH Ratio Visit Values [5, 8]: 12.5 ± 27.9 (35)
- 24 Hour Urine Cortisol Visit Change Values from Baseline [5, 8]: 471 ± 2843 (35) nmol/24 hr
- 24 Hour Urine Cortisol Visit Values [5, 8]: 1423 ± 6086 (35) nmol/24 hr
